From ChEMBL document CHEMBL1128631, “Photoinduced electron transfer for pyrenesulfonamide conjugates of tryptophan-containing peptides. Mitigation of fluoroprobe behavior in N-terminal labeling experiments” (Bioorg Med Chem Lett, 1995)

What was measured:
Format in all cases: ADME
[1] = Half-life time was measured in the presence of methyl cyanide solvent
[2] = Life-time was measured in the presence of DMF solvent (t = weighted average of two lifetimes from biexponential decay)
[3] = Life-time was measured in the presence of methyl cyanide solvent (t = weighted average of two lifetimes from biexponential decay)

| SMILES | T1/2 [1] [us] | t [2] [ns] | t [3] [ns] |
| --- | --- | --- | --- |
| CCOC(=O)[C@H](Cc1c[nH]c2ccccc12)NC(=O)[C@H](C)NS(=O)(=O)c1ccc2ccc3ccc([N+](=O)[O-])c4ccc1c2c34 | 0.4 | – | – |
| CCOC(=O)[C@H](Cc1c[nH]c2ccccc12)NC(=O)[C@H](C)NC(=O)[C@H](C)NS(=O)(=O)c1ccc2ccc3cccc4ccc1c2c34 | – | 1.3 | 3.1 |
| CCOC(=O)[C@H](Cc1c[nH]c2ccccc12)NC(=O)[C@H](C)NS(=O)(=O)c1ccc2ccc3cccc4ccc1c2c34 | – | 0.5 | 0.76 |

The next lines start with the values.

| T1/2 [1] [us] | t [2] [ns] | t [3] [ns] | SMILES |
| --- | --- | --- | --- |
| – | 0.32 | 0.79 | CCOC(=O)[C@H](Cc1c[nH]c2ccccc12)NS(=O)(=O)c1ccc2ccc3cccc4ccc1c2c34 |
| 0.16 | – | – | CCOC(=O)[C@H](Cc1c[nH]c2ccccc12)NC(=O)[C@H](C)NC(=O)[C@H](C)NS(=O)(=O)c1ccc2ccc3ccc([N+](=O)[O-])c4ccc1c2c34 |
| 12 | – | – | CCOC(=O)[C@H](C)NS(=O)(=O)c1ccc2ccc3ccc([N+](=O)[O-])c4ccc1c2c34 |
